# US20240218022A1, “ANTI-VISTA MACROCYCLIC PEPTIDES AND COMPOSITIONS” (BRISTOL-MYERS SQUIBB COMPANY, priority 2022, published 2024)
# Positions of bridges follow the written chain, without caps; N, C: chain ends. Non-standard residues stand in square brackets, D forms with d. Residues, ends and D or L forms follow the SMILES beside them. Cit = NC(=O)NCCC[C@H](N)C(=O)O; Ahp(2) = CCCCC[C@H](N)C(=O)O; NMeNle = CCCC[C@H](NC)C(=O)O; NHexGly = CCCCCCNCC(=O)O; Nle = CCCC[C@H](N)C(=O)O; Abu = CC[C@H](N)C(=O)O
# Target: T1, mouse VISTA (mVISTA) (Mus musculus, UniProt Q9D659)
# T1 construct: expressed in transfected cells; host or cells: Human embryonic kidney 293T cells
# T1 sequence (Q9D659 33-308): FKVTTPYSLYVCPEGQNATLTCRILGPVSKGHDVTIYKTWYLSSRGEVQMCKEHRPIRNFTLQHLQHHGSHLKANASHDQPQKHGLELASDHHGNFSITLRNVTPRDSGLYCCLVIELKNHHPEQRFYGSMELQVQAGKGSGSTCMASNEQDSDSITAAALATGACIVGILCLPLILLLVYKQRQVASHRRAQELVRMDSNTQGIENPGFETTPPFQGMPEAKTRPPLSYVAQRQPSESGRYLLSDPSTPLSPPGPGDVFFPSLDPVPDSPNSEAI
# Test: Cell-Based Binding High-Content Assay For mVISTA (HC CBA mVISTA)
# Conditions: 293T cells expressing mouse VISTA; competition with biotinylated peptide (2 nM); read-out: CBA mVISTA IC50
# Method in brief: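 mVISTA-293T, 4,000 cells/well; cpd ± washout step; biotin-peptide 2 nM final, 30 min RT; SA-Alexa 647 30 min; formaldehyde/Hoechst fix; HCS imaging; 4PL IC50.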
row,IC50 [nM],Structure (SMILES)
1,6.6,CCCCCCN1CC(=O)N[C@@H](Cc2ccc(O)cc2)C(=O)N[C@@H](CCCC)C(=O)N[C@@H](CC(=O)O)C(=O)N[C@@H](CCCNC(=N)N)C(=O)N(C)[C@@H](CCCC)C(=O)N[C@@H](CCCCC)C(=O)N2CCC[C@H]2C(=O)N[C@@H](C(C)C)C(=O)N[C@@H](CC(=O)O)C(=O)N[C@H](C(=O)N[C@@H](CC(=O)O)C(N)=O)CSCC(=O)N[C@@H](Cc2ccccc2)C(=O)N[C@@H](Cc2ccc(O)cc2)C(=O)N[C@@H](CC(=O)O)C1=O [Example 1073] ({CH2CO}-FYD[NHexGly]Y[Nle]DR[NMeNle][Ahp(2)]PVDCD-NH2; thioether N-14)
2,9.7,CCCCCCN1CC(=O)N[C@@H](Cc2ccc(O)cc2)C(=O)N[C@@H](CCCCC)C(=O)N[C@@H](CC(=O)O)C(=O)N[C@@H](CCCNC(=N)N)C(=O)N(C)[C@@H](CCCC)C(=O)N[C@@H](CCCCC)C(=O)N2CCC[C@H]2C(=O)N[C@@H](C(C)C)C(=O)N[C@@H](CC(=O)O)C(=O)N[C@H](C(=O)N[C@@H](CC(=O)O)C(N)=O)CSCC(=O)N[C@@H](Cc2ccccc2)C(=O)N[C@@H](Cc2ccc(O)cc2)C(=O)N[C@@H](CC(=O)O)C1=O [Example 1074] ({CH2CO}-FYD[NHexGly]Y[Ahp(2)]DR[NMeNle][Ahp(2)]PVDCD-NH2; thioether N-14)
3,19.1,CCCCCCN1CC(=O)N[C@@H](Cc2ccc(O)cc2)C(=O)N[C@@H](CCCC)C(=O)N[C@@H](CC(=O)O)C(=O)N[C@@H](CCCNC(=N)N)C(=O)N(C)[C@@H](CCCC)C(=O)N[C@@H](CCCCC)C(=O)N2CCC[C@H]2C(=O)N[C@@H](C(C)C)C(=O)N[C@@H](CC(=O)O)C(=O)N[C@H](C(=O)N[C@H](CC(=O)O)C(N)=O)CSCC(=O)N[C@@H](Cc2ccccc2)C(=O)N[C@@H](Cc2ccc(O)cc2)C(=O)N[C@@H](CC(=O)O)C1=O [Example 1075] ({CH2CO}-FYD[NHexGly]Y[Nle]DR[NMeNle][Ahp(2)]PVDC[dD]-NH2; thioether N-14)
4,21.5,CCCCCCN1CC(=O)N[C@@H](Cc2ccc(O)cc2)C(=O)N[C@@H](CCCCC)C(=O)N[C@@H](CC(=O)O)C(=O)N[C@@H](CCCNC(=N)N)C(=O)N(C)[C@@H](CCCC)C(=O)N[C@@H](CCCCC)C(=O)N2CCC[C@H]2C(=O)N[C@@H](C(C)C)C(=O)N[C@@H](CC(=O)O)C(=O)N[C@H](C(=O)N[C@H](CC(=O)O)C(N)=O)CSCC(=O)N[C@@H](Cc2ccccc2)C(=O)N[C@@H](Cc2ccc(O)cc2)C(=O)N[C@@H](CC(=O)O)C1=O [Example 1076] ({CH2CO}-FYD[NHexGly]Y[Ahp(2)]DR[NMeNle][Ahp(2)]PVDC[dD]-NH2; thioether N-14)

# Same assay, conditions: 293T cells expressing mouse VISTA; competition with biotinylated peptide (2 nM); read-out: HC CBA mVISTA IC50
row,Structure (SMILES),IC50 [nM]
1,CCCCCCN1CC(=O)N[C@@H](Cc2ccc(O)cc2)C(=O)N[C@@H](CC(C)C)C(=O)N[C@@H](CC(N)=O)C(=O)N[C@@H](CCCNC(=N)N)C(=O)N[C@@H](CC(C)C)C(=O)N[C@@H](CCCCC)C(=O)N2CCC[C@H]2C(=O)N[C@@H](C(C)C)C(=O)N[C@@H](Cc2c[nH]c3ccccc23)C(=O)N[C@H](C(=O)NCC(=O)O)CSCC(=O)N[C@@H](Cc2ccccc2)C(=O)N[C@@H](Cc2ccc(O)cc2)C(=O)N[C@@H](CC(=O)O)C1=O [Example 1068] ({CH2CO}-FYD[NHexGly]YLNRL[Ahp(2)]PVWCG-OH; thioether N-14),39.4
2,CCCCCCN1CC(=O)N[C@@H](Cc2ccc(O)cc2)C(=O)N[C@@H](CCCNC(=N)N)C(=O)N[C@@H](CC(N)=O)C(=O)N[C@@H](CCCNC(=N)N)C(=O)N[C@@H](CC(C)C)C(=O)N[C@@H](CCCCC)C(=O)N2CCC[C@H]2C(=O)N[C@@H](C(C)C)C(=O)N[C@@H](Cc2c[nH]c3ccccc23)C(=O)N[C@H](C(=O)NCC(=O)O)CSCC(=O)N[C@@H](Cc2ccccc2)C(=O)N[C@@H](Cc2ccc(O)cc2)C(=O)N[C@@H](CC(=O)O)C1=O [Example 1069] ({CH2CO}-FYD[NHexGly]YRNRL[Ahp(2)]PVWCG-OH; thioether N-14),48.3

# Further lines, results first:
row,IC50 [nM],Structure (SMILES)
1,15.2,CCCCCCN1CC(=O)N[C@@H](Cc2ccc(O)cc2)C(=O)N[C@@H](CC)C(=O)NCC(=O)N[C@@H](CCCNC(=N)N)C(=O)N[C@@H](CC(C)C)C(=O)N[C@@H](CCCCC)C(=O)N2CCC[C@H]2C(=O)N[C@@H](C(C)C)C(=O)N[C@@H](CO)C(=O)N[C@H](C(=O)NCC(=O)O)CSCC(=O)N[C@@H](Cc2ccccc2)C(=O)N[C@@H](Cc2ccc(O)cc2)C(=O)N[C@@H](CC(=O)O)C1=O [Example 1062] ({CH2CO}-FYD[NHexGly]Y[Abu]GRL[Ahp(2)]PVSCG-OH; thioether N-14)
2,28.6,CCCCCCN1CC(=O)N[C@@H](Cc2ccc(O)cc2)C(=O)N[C@@H](C(C)C)C(=O)NCC(=O)N[C@@H](CCCNC(=N)N)C(=O)N[C@@H](CC(C)C)C(=O)N[C@@H](CCCCC)C(=O)N2CCC[C@H]2C(=O)N[C@@H](C(C)C)C(=O)N[C@@H](CO)C(=O)N[C@H](C(=O)NCC(=O)O)CSCC(=O)N[C@@H](Cc2ccccc2)C(=O)N[C@@H](Cc2ccc(O)cc2)C(=O)N[C@@H](CC(=O)O)C1=O [Example 1063] ({CH2CO}-FYD[NHexGly]YVGRL[Ahp(2)]PVSCG-OH; thioether N-14)
3,9.3,CCCCCCN1CC(=O)N[C@@H](Cc2ccc(O)cc2)C(=O)N[C@@H](CCCCC)C(=O)NCC(=O)N[C@@H](CCCNC(N)=O)C(=O)N[C@@H](CC(C)C)C(=O)N[C@@H](CCCCC)C(=O)N2CCC[C@H]2C(=O)N[C@@H](C(C)C)C(=O)N[C@@H](CO)C(=O)N[C@H](C(=O)NCC(N)=O)CSCC(=O)N[C@@H](Cc2ccccc2)C(=O)N[C@@H](Cc2ccc(O)cc2)C(=O)N[C@@H](CC(=O)O)C1=O [Example 1064] ({CH2CO}-FYD[NHexGly]Y[Ahp(2)]G[Cit]L[Ahp(2)]PVSCG-NH2; thioether N-14)
4,15.6,CCCCCCN1CC(=O)N[C@@H](Cc2ccc(O)cc2)C(=O)N[C@@H](CCCC)C(=O)N[C@@H](CC(=O)O)C(=O)N[C@@H](CCCNC(=N)N)C(=O)N[C@@H](CC(C)C)C(=O)N[C@@H](CCCCC)C(=O)N2CCC[C@H]2C(=O)N[C@@H](C(C)C)C(=O)N[C@@H](C(C)C)C(=O)N[C@H](C(=O)NCC(=O)O)CSCC(=O)N[C@@H](Cc2ccccc2)C(=O)N[C@@H](Cc2ccc(O)cc2)C(=O)N[C@@H](CC(=O)O)C1=O [Example 1065] ({CH2CO}-FYD[NHexGly]Y[Nle]DRL[Ahp(2)]PVVCG-OH; thioether N-14)
5,2.4,CCCCCCN1CC(=O)N[C@@H](Cc2ccc(O)cc2)C(=O)N[C@@H](CC(C)C)C(=O)N[C@@H](CC(N)=O)C(=O)N[C@@H](CCCNC(=N)N)C(=O)N[C@@H](CC(C)C)C(=O)N[C@@H](CCCCC)C(=O)N2CCC[C@H]2C(=O)N[C@@H](C(C)C)C(=O)N[C@@H](C(C)C)C(=O)N[C@H](C(=O)NCC(=O)O)CSCC(=O)N[C@@H](Cc2ccccc2)C(=O)N[C@@H](Cc2ccc(O)cc2)C(=O)N[C@@H](CC(=O)O)C1=O [Example 1066] ({CH2CO}-FYD[NHexGly]YLNRL[Ahp(2)]PVVCG-OH; thioether N-14)
6,28.9,CCCCCCN1CC(=O)N[C@@H](Cc2ccc(O)cc2)C(=O)N[C@@H](CCCC)C(=O)N[C@@H](CC(=O)O)C(=O)N[C@@H](CCCNC(=N)N)C(=O)N[C@@H](CC(C)C)C(=O)N[C@@H](CCCCC)C(=O)N2CCC[C@H]2C(=O)N[C@@H](C(C)C)C(=O)N[C@@H](Cc2c[nH]c3ccccc23)C(=O)N[C@H](C(=O)NCC(=O)O)CSCC(=O)N[C@@H](Cc2ccccc2)C(=O)N[C@@H](Cc2ccc(O)cc2)C(=O)N[C@@H](CC(=O)O)C1=O [Example 1067] ({CH2CO}-FYD[NHexGly]Y[Nle]DRL[Ahp(2)]PVWCG-OH; thioether N-14)
7,18.1,CCCCCCN1CC(=O)N[C@@H](Cc2ccc(O)cc2)C(=O)N[C@@H](CCCC)C(=O)NCC(=O)N[C@@H](CCCNC(=N)N)C(=O)N[C@@H](CC(C)C)C(=O)N[C@@H](CCCCC)C(=O)N2CCC[C@H]2C(=O)N[C@@H](C(C)C)C(=O)N[C@@H](Cc2ccc(O)cc2)C(=O)N[C@H](C(=O)NCC(=O)O)CSCC(=O)N[C@@H](Cc2ccccc2)C(=O)N[C@@H](Cc2ccc(O)cc2)C(=O)N[C@@H](CC(=O)O)C1=O [Example 1070] ({CH2CO}-FYD[NHexGly]Y[Nle]GRL[Ahp(2)]PVYCG-OH; thioether N-14)
8,17.7,CCCCCCN1CC(=O)N[C@@H](Cc2ccc(O)cc2)C(=O)N[C@@H](CCCC)C(=O)N[C@@H](CC(=O)O)C(=O)N[C@@H](CCCNC(=N)N)C(=O)N[C@@H](CC(C)C)C(=O)N[C@@H](CCCCC)C(=O)N2CCC[C@H]2C(=O)N[C@@H](C(C)C)C(=O)N[C@@H](Cc2ccc(O)cc2)C(=O)N[C@H](C(=O)NCC(=O)O)CSCC(=O)N[C@@H](Cc2ccccc2)C(=O)N[C@@H](Cc2ccc(O)cc2)C(=O)N[C@@H](CC(=O)O)C1=O [Example 1071] ({CH2CO}-FYD[NHexGly]Y[Nle]DRL[Ahp(2)]PVYCG-OH; thioether N-14)
9,5.8,CCCCCCN1CC(=O)N[C@@H](Cc2ccc(O)cc2)C(=O)N[C@@H](CC(C)C)C(=O)N[C@@H](CC(N)=O)C(=O)N[C@@H](CCCNC(=N)N)C(=O)N[C@@H](CC(C)C)C(=O)N[C@@H](CCCCC)C(=O)N2CCC[C@H]2C(=O)N[C@@H](C(C)C)C(=O)N[C@@H](C(C)C)C(=O)N[C@H](C(=O)N[C@@H](CO)C(=O)O)CSCC(=O)N[C@@H](Cc2ccccc2)C(=O)N[C@@H](Cc2ccc(O)cc2)C(=O)N[C@@H](CC(=O)O)C1=O [Example 1072] ({CH2CO}-FYD[NHexGly]YLNRL[Ahp(2)]PVVCS-OH; thioether N-14)
